Measurements: publication PMC5622107, “Small molecule inhibition of cGAS reduces interferon expression in primary macrophages from autoimmune mice” (Nature Communications, 2017)
Like-named read-outs stand apart in the source and are kept apart here.

How the values were obtained:
[1] = molecular target: T1, mouse cGAS (Mus musculus, UniProt Q8C6L5); assay: RapidFire mass spectrometry (RF-MS) cGAS enzymatic assay, cGAMP product formation; assay type: biochemical; settings: for IC50: read-out: IC50; for inhibition at 12.5 µM: compound 12.5 µM, read-out: % inhibition at 12.5 µM
T1 construct: recombinant full-length mouse cGAS in reaction buffer; His6-SUMO (N, cleaved yes); made in house; host or cells: E. coli BL21(DE3) RIL
Procedure: The liquid was collected at the well bottom using centrifugation for 30 s at 180×g. […] Plates were centrifuged for 30 s at 180×g to collect all liquid at the bottom of the wells. […] The reaction was stopped by addition of 65 µl of 0.5% (v/v) formic acid per well. The plates were centrifuged for 30 s at 180×g and sealed with a Velocity11 PlateLoc thermal plate sealer.
The solvent used for loading/washing process was an aqueous solution of 5 mM ammonium acetate, pH 10. […] Each sample of approximately 35 µl were aspirated from a 384-well plate and separated using a Graphitic carbon Type D cartridge. After each sample was loaded onto the cartridge it was washed for 4 s at 1.5 ml min^−1 using the aqueous solvent. ATP, GTP and cGAMP were eluted for 5 s using the organic solvent at a flow rate of 1.5 ml min^−1. The cartridge was then re-equilibrated with the aqueous solvent for 5 s at a flow rate of 1.5 ml min^−1. All samples were analyzed using a negative ionization mode in the mass spectrometer, with a gas temperature of 350 °C, nebulizer pressure of 35 psig, gas flow rate of 15 l min^−1. […] The Agilent RapidFire Integrator software was used to calculate the area under the curve (AUC) of the extracted ion counts for each analyte. Data points represent values of product formation. Catalytic rates expressed as percent product formation were calculated using the AUC of cGAMP and using the AUC’s of ATP and GTP to normalize for variations in the capacity of the solid phase extraction column during a screening run, as shown in the following formula: product formation (%) = [(AUCcGAMP × 100)/(AUCcGAMP + ½ AUCATP + ½ AUCGTP)].
To determine the percent inhibition of mouse cGAS the data was normalized against the positive control (column 24) and negative control (column 23). […] The quality of the screen was assessed by Z′ factor[57] calculated as follows: Z′ = 1−[3∗(standard deviation positive control + standard deviation negative control)/(average positive control—average negative control)].

[2] = test system: 45-bp dsDNA; assay: DNA intercalation: acridine orange displacement from dsDNA by fluorescence polarization; assay type: binding; settings: Supplementary Table 2; for Polarization: compound 30 µM
Procedure: Ten microliters of HEN buffer (10 mM HEPES pH 7.5, 1 mM EDTA pH 7.5, 100 mM NaCl) were dispensed per well using a Thermo Multidrop Combi dispenser (Thermo Scientific). The liquid was collected at the well bottom using centrifugation for 30 s at 180×g. […] The final concentration of compounds in the assay was 30 µM. […] The liquid was collected at the well bottom using centrifugation for 30 s at 180×g. […] The liquid was collected at the well bottom using centrifugation for 30 s at 180 × g and the plates were incubated for 30 min. Mitoxantrone, a known DNA intercalator was used at 50 µM as a positive control, while DMSO alone was used as negative control. FP was measured using a Biotek Synergy Neo plate reader. […] All FP values are expressed in millipolarization (mP) units. The mP values were calculated using the equation mP = 1000 × [(I S−I SB)−(I P−I PB)]/[I S—I SB) + (I P−I PB)], where I S and […] to the parallel and perpendicular emission intensity, respectively, and I SB and I SP corresponds to parallel emission intensity perpendicular emission intensity of the buffer, respectively. The experimental G-factor, defined as G = I S/I P, was set to 1.0 in all experiments.

[3] = test system: IFNB1-Luc activity; assay: Interferon induction cellular assay (IFNB1-Luc) of the original manuscript version, reported in the point-by-point response; assay type: cell-based; settings: original Fig. 5a, compared with vehicle
[4] = test system: cGAS activity in dsDNA-stimulated RAW macrophages; assay: Cellular luciferase assay, interferon-responsive reporter in dsDNA-stimulated RAW macrophages; assay type: cell-based; settings: Mus musculus, Macrophage, dsDNA-activated RAW cells
Procedure: (§1) The sequence and annealing conditions of the dsDNA used is described above. Typically, 0.4 µg or 0.6 µg of dsDNA was used to stimulate RAW-Lucia ISG-KO-TREX1/ISG-KO-cGAS or RAW-Lucia ISG cells, respectively, which equated to 90% of maximal luciferase activity observed. dsDNA stimulation of RAW macrophages and subsequent luciferase measurements were performed with or without the addition of small molecules at indicated concentrations in each figure, or with DMSO as vehicle control. For the dose curve experiments, serial dilutions of inhibitors were applied to 6.7 × 10^5 cells, plated in 24-well dishes, and co-stimulated with 0.4 µg of dsDNA. In subsequent experiments using inhibitors in RAW cells, the small molecules were used at concentrations representing the derived EC75 values, while co-stimulated with one of the following: 0.4 µg dsDNA, 50 nM 5′ppp-HP20 hairpin RNA (a kind gift from Dr Anna Pyle, Yale University; sequence located in Supplementary Table 5), 10 µM cGAMP, or 100 U ml^−1 murine recombinant Ifnb (R&D Systems). dsDNA was transfected using Lipofectamine LTX. 5′ppp-HP20 RNA was transfected using Lipofectamine 2000. Cells were harvested 24 h post-transfection, washed with PBS, and lysed in 1× Luciferase Cell Lysis Buffer (Pierce).
(§2) The minimum numbers of biological and technical replicates for the luciferase assays were two and three, respectively. Analysis of luminescence values were evaluated for outliers (one standard deviation above and below the mean) for each biological replicate, and the resulting means were used to generate graphs in GraphPad Prism (v. 7.0c); where applicable, an unpaired t-test with Welch’s correction was used to compare the results of each individual compound to dsDNA or other stimulant. The experimental variances observed within control samples (untreated or vehicle) and treated samples were similar.

[5] = test system: RAW 264.7; assay: Cytotoxicity, CellTiter-Glo ATP quantitation at 72 h; assay type: cell-based
Procedure: Small-molecule compounds were serially diluted to concentrations spanning the range tested in the response curves were added to 6.7 × 10^5 RAW-Blue macrophages plated 16 h prior in 96-well dishes, then harvested 72 h after compound addition. ATP was measured using CellTiter Glo Viability Assay (Promega) using 50 µM Tamoxifen (Sigma) as a positive control for cytotoxicity. Viability values were generated using vehicle (DMSO) or the first dose (RU.521) as 100% and Tamoxifen as 0%. Outliers were removed as described previously.

[6] = test system: RAW macrophage cells stimulated with 5′ppp-HP20 RNA, Pam3CSK4, poly(I:C), LPS or recombinant Ifnb; assay: Selectivity: RAW macrophages stimulated with non-DNA immunogenic ligands (luciferase reporter or Il-6 qRT-PCR); assay type: cell-based, mouse; settings: compound at EC75; 5′ppp-HP20 RNA, Pam3CSK4, poly(I:C), LPS, Ifnb
Procedure: as §1, §2
The small molecules were used at concentrations representing the EC75 values and were co-stimulated with either 200 ng Pam3CSK4 (Invivogen), 25 µg poly(I:C) or 100 ng lipopolysaccharide (Sigma-Aldrich) at the cell counts and conditions previously described for the cellular luciferase assays. Cells were harvested 24 h post-transfection, washed with PBS, and RNA was extracted using Trizol (Ambion) and chloroform (Sigma-Aldrich). In all, 1–2 µg of total RNA was reverse-transcribed using random hex primers and SuperScript III (Life Technologies) into cDNA. […] The expression of mRNAs […] murine Actb1 and Il-6 were measured (see Supplementary Table 5 for primer sequences used). Target C T values were normalized to Actb1 C T values and used to calculate ΔC T. mRNA expression of target genes were then calculated using the ΔΔC T method (2^ΔΔCT). Expression values were analyzed as described in the method for cellular luciferase assays.

[7] = molecular target: cGAS (cyclic GMP-AMP synthase) (mouse, UniProt Q8C6L5 147-507); assay: X-ray crystallography, 2.13 A; RU.365 in active site; Co-crystallization; crystallization buffer not in the material; protein stock 20 mM Tris-HCl pH 7.5, 300 mM NaCl, 1 mM DTT. ITC values are for inhibitors, and t; settings: protein: recombinant; tags: His6-SUMO removed by ULP1; chain copies: 2; 16 bp plus 1-nt 5' overhang at each end
[8] = Fig. 1e, four prioritized screening hits, confirmed with independent lots of compound
[9] = Supplementary Table 2, batch of compounds stored in the screening library

T1 sequence (Q8C6L5 whole entry): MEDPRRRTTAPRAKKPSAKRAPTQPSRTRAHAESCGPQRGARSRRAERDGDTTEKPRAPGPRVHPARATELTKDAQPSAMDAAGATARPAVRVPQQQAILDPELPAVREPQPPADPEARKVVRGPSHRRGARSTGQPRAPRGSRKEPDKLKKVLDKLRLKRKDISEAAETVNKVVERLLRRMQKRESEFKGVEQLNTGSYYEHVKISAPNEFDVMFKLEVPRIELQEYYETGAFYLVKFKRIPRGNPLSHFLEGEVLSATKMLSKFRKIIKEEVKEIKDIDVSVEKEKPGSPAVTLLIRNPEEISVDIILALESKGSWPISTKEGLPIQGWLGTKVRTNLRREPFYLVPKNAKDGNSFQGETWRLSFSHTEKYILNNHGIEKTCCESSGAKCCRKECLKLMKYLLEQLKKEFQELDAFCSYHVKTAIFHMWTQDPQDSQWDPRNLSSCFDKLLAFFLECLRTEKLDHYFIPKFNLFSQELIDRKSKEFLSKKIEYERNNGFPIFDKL
Sequence of cGAS (cyclic GMP-AMP synthase) (Q8C6L5 147-507): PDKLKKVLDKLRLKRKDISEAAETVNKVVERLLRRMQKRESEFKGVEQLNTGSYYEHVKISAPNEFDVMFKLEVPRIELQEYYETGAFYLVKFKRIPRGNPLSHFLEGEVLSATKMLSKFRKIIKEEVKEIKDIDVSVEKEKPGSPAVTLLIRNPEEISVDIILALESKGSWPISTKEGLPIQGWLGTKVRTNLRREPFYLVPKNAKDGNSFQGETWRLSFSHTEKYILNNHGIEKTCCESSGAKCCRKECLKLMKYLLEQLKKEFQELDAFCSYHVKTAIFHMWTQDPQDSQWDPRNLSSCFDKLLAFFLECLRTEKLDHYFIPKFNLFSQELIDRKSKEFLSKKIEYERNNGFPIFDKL

| Molecule | IC50 [1, 8] | IC50 [1, 9] | inhibition at 12.5 µM ([1]; Supplementary Table 2) | Polarization [2] | IFNB1-Luc activity [3] | other results |
| --- | --- | --- | --- | --- | --- | --- |
| O=C1N=C(N2CCCCC2)SC1=C1C(=O)Nc2ccccc21 [RU100840] | 30 nM | 60 nM | 88% | 269 mP | mild activation | % intercalation at 30 µM ([2]; acridine orange displacement compared to mitoxantrone): -8.9% |
| O=C(COc1ccc(Cl)c2ccccc12)Nc1ncccc1O [RU191752] | 70 nM | 170 nM | 95% | 276 mP | mild activation | – |
| Cc1nn(-c2nc3ccccc3s2)c(O)c1C1OC(=O)c2ccccc21 (stereo not drawn) [RU281332] | – | – | – | – | – | IC50 ([1]; Supplementary Table 3, analogs more potent than RU166365): 1790 nM; effect of structural modification on cGAS inhibitory potency ([1]; compared with RU.365): did not change the potency; IC50 [4]: 13600 nM; LD50 over cellular IC50 [5]: 3.5 fold; LD50 ([5]; RAW macrophages, 72 h, percent viability, listed as RU.332): 48 µM; suppression of activation by immunogenic stimuli other than dsDNA [6]: inhibited the activation of cells by most of the immunogenic ligands tested |
| crystal dsDNA (dsDNA) DNA 1: AAATTGCCGAAGACGAA DNA 2: TTTCGTCTTCGGCAATT | – | – | – | – | – | binding result [7]: binds |
